Patent US9618507B2, “Methods of treating rheumatoid arthritis” (Betanien Hospital, priority 2014, dated 2017)
Where a SMILES comes first, the peptide text is derived from it. [ ]: non-standard residue; d: D form. dPhe(4-Cl) = N[C@H](Cc1ccc(Cl)cc1)C(=O)O; d2Nal = N[C@H](Cc1ccc2ccccc2c1)C(=O)O; dCit = NC(=O)NCCC[C@@H](N)C(=O)O; d3Pal = N[C@H](Cc1cccnc1)C(=O)O

Tests used:
[1] = tested on: RA patients; assay: Example 1: randomized, double-blind, placebo-controlled study, disease activity (DAS28-CRP, ACR responses, core set measures); assay type: in vivo, human
Experimental: In this randomized, double-blind, placebo-controlled, single-centre study, males and females aged ≧18 years with RA according to the 1987 revised American College of Rheumatology (ACR) criteria, and with a 28-joint Disease Activity Score based on C-reactive protein (DAS28-CRP)>3.2 were enrolled.
(§1) Ethical committee approval was obtained. […] Safety and efficacy visits, with blood sampling, were between 0730 and 0930 h on days 1 (baseline), 2, 3, 4, 5 (visit 5a), 10, and 15. There was an additional visit (visit 5b) between 1930 and 2130 h when maximum GnRH suppression was anticipated.
(§2) Predefined secondary end-points included the baseline adjusted between-group difference inTNF-α, ACR20/50/70 responses, European League Against Rheumatism (EULAR) responses, DAS28-CRP <2.6 and ≦3.2, and adverse events.
Menstruating women could only enter the study in the early follicular phase of their menstrual cycle. The concomitant use of stable doses of disease-modifying anti-rheumatic drugs (DMARDs) for at least 8 weeks, stable prednisolone ≦7.5 mg daily for at least 4 weeks, and stable non-steroidal anti-inflammatory drugs (NSAIDs) for at least 2 weeks was allowed if these doses were continued throughout the study. Key exclusion criteria were as follows: pregnancy or breastfeeding females; corticosteroid injections within the trial or 4 weeks prior to screening; biological agents were not permitted during the trial or within 4 weeks prior to inclusion in the trial (with the exception of infliximab or adalimumab which were not permitted within 3 months prior to inclusion in the trial; and rituximab which was not permitted within 6 months prior to inclusion in the trial). A history of hormone-dependent cancers ever or non-hormone-dependent cancers within 5 years prior to screening: infections requiring intravenous antibiotic treatment within 30 days, or oral antibiotics within 14 days prior to enrolment; significant renal or hepatic impairment; and any treatment with hormone replacement therapy or oral contraception were also exclusion criteria.
(§3) The Newcombe hybrid score interval was used to estimate 95% confidence intervals (CI) for the difference between proportions (Fagerland M W, et al., Stat Methods Med Res 2011). No adjustments for multiple analyses were made, owing to the highly correlated variables. All clinical, biochemical, and safety data were analyzed by an intention-to-treat analysis. Only predefined endpoints are presented. The intention-to-treat population was predefined in the protocol as all randomized patients who received any injections of study drug. Missing values were <1% and could, as predefined, be imputed with the last observation carried forward. The assumptions of normality needed for analyses were approximately valid. The Spearman rank correlation coefficient (Spearman's rho) was used to estimate the association between pairs of continuous variables.

[2] = tested on: RA patients with high gonadotropin levels; assay: Example 2: AGRA post hoc analyses in patients with high gonadotropin levels, disease activity (DAS28-CRP, ACR, EULAR); assay type: in vivo, human
Text: Post hoc analyses is described herein.
Key inclusion criteria for AGRA were males or females aged ≧18 years with RA that had been diagnosed on the basis of the American College of Rheumatology (ACR) 1987 revised criteria (Arnett F C, et al., Arthritis Rheum 1988; 31:315-24); with active, and moderate or severe disease defined as a Disease Activity Score for 28-joint counts based on C-reactive protein (Wells G, et al., Ann Rheum Dis 2009; 68:954-60) (DAS28-CRP) >3.2 and at least two of the following criteria: ≧6 painful joints, ≧3 swollen joints, ESR ≧20 mm/h, and a C-reactive protein ≧10 mg/L). Prednisolone ≦7.5 mg/day was permitted if stable for at least 4 weeks prior to baseline; NSAIDs were permitted if stable for at least 2 weeks prior to baseline; and disease-modifying anti-rheumatic drugs (DMARDs) were permitted if stable for at least 8 weeks prior to baseline. Tumour necrosis factor-α (TNF-α) inhibitor or other biological agents were not permitted during the trial or within 4 weeks prior to inclusion. Infliximab/adalimumab was not permitted at least 3 months prior to inclusion; Rituximab was not permitted at least 6 months prior to inclusion. Intramuscular, intra-articular or intravenous corticosteroids; any hormone replacement therapy; or oral contraception was not permitted during the trial or within 4 weeks prior to inclusion.
In these post hoc analyses, a subgroup of AGRA patients with high gonadotropin levels were examined. There is no established cut-off for high LH and/or FSH. Therefore, levels above the median were defined as high (e.g., LH>17.3 IU/L and FSH>34.6 IU/L).
(§4) The intention-to-treat population was predefined as all randomised patients who received any study-drug injections. Missing values were <1% and could, as predefined, be imputed with the last-observation-carried-forward. The assumptions of normality needed for analyses were approximately valid. All statistical tests were two-sided (α=0.05) and performed with Stata 12 and StatXact 9. Analyses were performed by an offsite statistician who received locked databases from blinded investigators and laboratories, and the allocation key from the offsite central office.

[3] = tested on: RA patients; assay: Example 1: adverse events; assay type: in vivo, human
Experimental: as §1, §2, §3

[4] = tested on: RA patients with high gonadotropin levels; assay: Example 2: adverse events in high gonadotropin patients; assay type: in vivo, human
Experimental: as §4

[5] = tested on: myeloma cells; conditions: Wen J, et al., Mol Cancer Ther 2011; cited from earlier work
[6] = high gonadotropin patients, by day 5, placebo 0%

CC(=O)N[C@H](Cc1ccc2ccccc2c1)C(=O)N[C@H](Cc1ccc(Cl)cc1)C(=O)N[C@H](Cc1cccnc1)C(=O)N[C@@H](CO)C(=O)N[C@@H](Cc1ccc(O)cc1)C(=O)N[C@H](CCCNC(N)=O)C(=O)N[C@@H](CC(C)C)C(=O)N[C@@H](CCCNC(=N)N)C(=O)N1CCC[C@H]1C(=O)N[C@H](C)C(N)=O [cetrorelix] (Ac-[d2Nal][dPhe(4-Cl)][d3Pal]SY[dCit]LRP[dA]-NH2)
DAS28-CRP between-group difference vs placebo ([1]; all patients, baseline adjusted, day 5, 95% CI −0.04 to 0.57, p 0.091): 0.26
patients achieving DAS28-CRP<2.6 ([1]; all patients, by day 5, placebo 0%): 13%
patients achieving ACR20 responses ([1]; all patients, by day 5, placebo 18%): 40%
DAS28-CRP reduction by day 5 ([1]; all patients, cetrorelix n=48, 5 mg/day s.c. days 1-2, 3 mg/day days 3-5, day 5): 0.82
ACR50/70 responses compared with placebo ([1]; all patients, day 5, FIG. 1A): More patients reached ACR50/70 responses
core set measures of disease activity compared with placebo ([1]; all patients, except physician global assessment): non-significant greater improvements
DAS28-CRP reduction, prednisolone users (n 24) vs non-users (n 24) ([1]; cetrorelix group, p 0.40): did not differ
reductions of DAS28-CRP and cytokines compared to placebo, high gonadotropin groups (N=53) versus the rest of the AGRA population (N=46) ([2]; FIG. 5B-E): greater reductions
patients achieving DAS28-CRP<2.6 [2, 6]: 15%
patients achieving DAS28-CRP≦3.2 [2, 6]: 22%
patients achieving EULAR 'Good-Responses' [2, 6]: 19%
patients achieving ACR20 responses ([2]; high gonadotropin patients, by day 5, placebo 19%): 44%
DAS28-CRP change by day 5 ([2]; high gonadotropin patients, cetrorelix N=27, 95% CI −1.3 to −0.67, placebo −0.40): −1.0
DAS28-CRP baseline-adjusted between-group difference ([2]; high gonadotropin patients, day 5, 95% CI 0.13 to 0.93, P=0.010): 0.53
ACR50 and ACR70 responses compared with placebo ([2]; high gonadotropin patients, numbers too small for valid conclusions): More patients reached ACR50 and ACR70 responses
DAS28-CRP reduction, prednisolone users (N=13) vs non-users (N=14) ([2]; patients who received cetrorelix, P=0.73): similar
Adverse effects: Headache ([3]; N = 48): 2 (4.2) n (percent)
Adverse effects: Hot flushes ([3]; N = 48): 2 (4.2) n (percent)
Adverse effects: Injection site discomfort ([3]; N = 48): 3 (6.3) n (percent)
Adverse effects: Menstrual spotting ([3]; N = 48): 2 (4.2) n (percent)
Adverse effects: Nasopharyngitis ([3]; N = 48): 1 (2.1) n (percent)
Adverse effects: Nausea ([3]; N = 48): 0 n (percent)
Adverse effects: Toothache ([3]; N = 48): 0 n (percent)
Adverse effects: Urinary tract infection ([3]; N = 48): 1 (2.1) n (percent)
serious side-effects ([3]; all patients): no serious side-effects were observed
Adverse events: Headache ([4]; N = 27): 2 (7.4) no. %
Adverse events: Injection site discomfort ([4]; N = 27): 2 (7.4) no. %
Adverse events: Nausea ([4]; N = 27): 0 no. %
Adverse events severity ([4]; high gonadotropin patients): mild
pro-inflammatory cytokine gene expression through GnRH receptors [5]: directly decrease
